From PubChem BioAssay AID391 (SGCOxCompounds, 2006)

Target: Serine/threonine-protein kinase PAK 6 (Homo sapiens) (UniProt Q9NQU5)
Assay: PAK6 binders by thermal shift, biophysical, DSF, SYPRO orange, recombinant protein (AID 391)
Conditions: at 10 µM, protein 2 µM, buffer 10 mM HEPES, pH 7.5, NaCl 150 mM
[1] = run set 2, stronger effect = higher value
[2] = run set 1, stronger effect = higher value

Serine/threonine-protein kinase PAK 6 (Homo sapiens), sequence (Q9NQU5 whole entry, looked up): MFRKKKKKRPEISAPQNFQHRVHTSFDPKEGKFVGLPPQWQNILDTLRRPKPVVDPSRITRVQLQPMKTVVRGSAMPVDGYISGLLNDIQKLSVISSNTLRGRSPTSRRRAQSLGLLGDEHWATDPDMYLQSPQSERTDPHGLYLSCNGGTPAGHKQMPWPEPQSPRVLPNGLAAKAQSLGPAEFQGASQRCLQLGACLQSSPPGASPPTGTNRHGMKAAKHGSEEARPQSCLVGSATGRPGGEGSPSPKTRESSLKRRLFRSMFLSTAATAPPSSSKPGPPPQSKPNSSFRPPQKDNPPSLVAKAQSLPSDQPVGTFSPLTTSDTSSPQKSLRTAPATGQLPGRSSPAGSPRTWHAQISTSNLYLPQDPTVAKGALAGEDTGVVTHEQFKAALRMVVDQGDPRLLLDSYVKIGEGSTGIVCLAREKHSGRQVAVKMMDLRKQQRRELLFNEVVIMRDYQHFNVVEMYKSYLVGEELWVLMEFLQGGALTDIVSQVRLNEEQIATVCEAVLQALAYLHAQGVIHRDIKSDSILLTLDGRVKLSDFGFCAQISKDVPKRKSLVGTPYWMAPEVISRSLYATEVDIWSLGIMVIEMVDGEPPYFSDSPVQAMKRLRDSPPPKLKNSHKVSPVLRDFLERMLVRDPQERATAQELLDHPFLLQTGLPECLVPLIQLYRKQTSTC

O=C1NCc2c1c1c3ccccc3[nH]c1c1[nH]c3ccccc3c21 showed a Tm shift [1] of 3.1 Celsius.

Compound O=C1Cc2c([nH]c3ccc(N(O)O)cc23)-c2ccccc2N1 has a Tm shift [2] of 3.92 Celsius.

With NC(=O)Nc1sc(-c2ccccc2)cc1C(N)=O the Tm shift [2] was 3.43 Celsius.

For Clc1ccc(-c2cnc3ccc(NC4CCOCC4)nn23)cc1, the Tm shift [1] was 3.5 Celsius.

For O=Nc1c(-c2c(O)[nH]c3ccc(S(O)(O)O)cc23)[nH]c2ccccc12, the Tm shift [2] was 3.24 Celsius.

In the case of CC(C)C(CO)Nc1nc(Nc2cccc(Cl)c2)c2ncn(C(C)C)c2n1 (centres undefined), the Tm shift [2] is reported as 5.88 Celsius.

In the case of Cn1cc(/C=C2\C(=O)Nc3ccc(S(N)(=O)=O)cc32)c2ccccc21, the Tm shift [1] is reported as 4.26 Celsius.

CC(C)n1cnc2c(Nc3cccc(Cl)c3)nc(NCCO)nc21 was tested, and the Tm shift [2] was 4.44 Celsius and the Tm shift [1] was 3.2 Celsius.

For NCCNc1ncc(C(N)=O)c(Nc2cccc(C(F)(F)F)c2)n1, the Tm shift [1] was 5.21 Celsius.

Compound OCC(O)CCO/N=C1/C(c2c(O)[nH]c3ccccc23)=Nc2ccccc21 (centres undefined) has a Tm shift [1] of 3.3 Celsius.

In the case of CCN(CC)CCNC(=O)c1c(C)[nH]c(/C=C2\C(=O)Nc3ccc(Cl)cc32)c1C, the Tm shift [1] is reported as 3.8 Celsius.

N#Cc1ccc(-c2cnc3ccc(NC4CCOCC4)nn23)cc1 was tested, and the Tm shift [1] was 3.3 Celsius.

O=C1Cc2c([nH]c3ccc(Br)cc23)-c2ccccc2N1 showed a Tm shift [1] of 3.2 Celsius.

In the case of O=Nc1c(-c2c(O)[nH]c3cc(Br)ccc23)[nH]c2ccccc12, the Tm shift [1] is reported as 3.4 Celsius.

Nc1nc(Nc2ccc(S(N)(=O)=O)cc2)nn1C(=S)Nc1c(F)cccc1F showed a Tm shift [1] of 5.64 Celsius.

NCCCn1cc(C2=C(c3c[nH]c4ccccc34)C(=O)NC2=O)c2ccccc21 gave a Tm shift [2] of 4.48 Celsius.

O=C1NC(=O)c2c1c1c3ccccc3n3c1c1c2c2ccccc2n1[C@@H]1CCC3O1 showed a Tm shift [2] of 6.44 Celsius.

In the case of CC(O)(O)C1(O)C[C@@H]2O[C@@]1(C)n1c3ccccc3c3c4c(c5c6ccccc6n2c5c31)C(=O)NC4 (some centres undefined), the Tm shift [1] is reported as 7.7 Celsius.

For CCn1cnc2c(Nc3cccc(Cl)c3)nc(N[C@@H]3CCCC[C@@H]3N)nc21, the Tm shift [1] was 7 Celsius.

Work on Cc1cc(Nc2nc(-c3ccccc3)nc3ccccc23)n[nH]1 yielded a Tm shift [1] of 5.45 Celsius.

Work on NC(=O)c1ccc(-c2nc(-c3ccc4c(c3)OCCO4)c(-c3ccccn3)[nH]2)cc1 yielded a Tm shift [1] of 4.8 Celsius.

For N=C(N)SCCCn1cc(C2=C(c3c[nH]c4ccccc34)C(=O)NC2=O)c2ccccc21, the Tm shift [2] was 3.13 Celsius.

With O=Nc1c(-c2c(O)[nH]c3ccccc23)[nH]c2ccccc12 the Tm shift [1] was 8.7 Celsius.
